Assay results: patent publication US11306101B2 (Celgene Corporation, priority 2019, dated 2022)

Target: T1, CK1α (Homo sapiens, UniProt P48729+Q96SW2)
T1 construct: expressed in transfected cells
Experiment: CK1α ePL degradation assay in MDS-L cells
Type: cell-based
Conditions: MDS-L cells expressing ePL-tagged CK1α; for DC50: concentration giving 50% CK1α degradation vs DMSO control; for Y: lowest measured CK1α level normalized to DMSO control
Protocol: The following is an example of an assay that can be used to determine the CK1α degradation activity of Isoindolinone Carboxamide Compounds in a cell line, for example, the MDS-L cell line.
Compounds were dispensed by an acoustic dispenser (ATS acoustic transfer system from EDC Biosystems) into a 384-well in a 10 point dose-response curve using 3-fold dilutions starting at 10 μM and going down to 0.0005 μM in DMSO. […] Assay plates were incubated at 37° C. with 5% CO2 for the indicated times. At the different time points, 25 μL of the InCELL Hunter™ Detection Reagent Working Solution (catalog number 96-0002, DiscoverX, Fremont, Calif.) was added to each well and incubated at RT for 30 min protected from light. After 30 min, luminescence was read on a PHERAstar luminometer (BMG LABTECH, Cary, N.C.).
CK1α levels in compound-treated wells were normalized to that of DMSO control and expressed as percent of control (PoC) (y).
The lowest measured CK1α level normalized to DMSO control in response to compound treatment, termed Y value, was used to characterize the compound-mediated CK1α degradation efficiency.

T1 sequence (P48729 whole entry): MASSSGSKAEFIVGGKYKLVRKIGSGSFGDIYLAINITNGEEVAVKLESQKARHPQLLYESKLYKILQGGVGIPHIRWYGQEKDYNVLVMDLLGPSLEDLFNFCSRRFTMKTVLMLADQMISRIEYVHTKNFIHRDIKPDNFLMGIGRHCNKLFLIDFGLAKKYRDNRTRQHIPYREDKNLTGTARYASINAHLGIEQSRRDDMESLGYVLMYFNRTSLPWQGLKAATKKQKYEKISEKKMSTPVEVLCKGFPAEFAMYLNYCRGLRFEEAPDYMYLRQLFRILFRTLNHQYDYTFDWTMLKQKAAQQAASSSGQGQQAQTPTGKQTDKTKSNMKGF
T1 sequence (Q96SW2 whole entry): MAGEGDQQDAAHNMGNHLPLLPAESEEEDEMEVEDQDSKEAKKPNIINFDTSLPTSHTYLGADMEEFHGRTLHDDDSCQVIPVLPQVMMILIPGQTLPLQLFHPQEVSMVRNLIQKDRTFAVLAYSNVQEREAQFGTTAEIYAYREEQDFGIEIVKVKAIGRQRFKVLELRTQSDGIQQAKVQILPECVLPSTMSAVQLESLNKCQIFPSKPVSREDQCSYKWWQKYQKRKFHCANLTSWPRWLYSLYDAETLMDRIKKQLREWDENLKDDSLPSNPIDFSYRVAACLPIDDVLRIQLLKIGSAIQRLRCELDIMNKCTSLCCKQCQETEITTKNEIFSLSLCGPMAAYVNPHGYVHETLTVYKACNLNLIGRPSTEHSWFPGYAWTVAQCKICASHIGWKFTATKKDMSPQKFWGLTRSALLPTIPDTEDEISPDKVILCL
T1 sequence (Q16531 whole entry partner): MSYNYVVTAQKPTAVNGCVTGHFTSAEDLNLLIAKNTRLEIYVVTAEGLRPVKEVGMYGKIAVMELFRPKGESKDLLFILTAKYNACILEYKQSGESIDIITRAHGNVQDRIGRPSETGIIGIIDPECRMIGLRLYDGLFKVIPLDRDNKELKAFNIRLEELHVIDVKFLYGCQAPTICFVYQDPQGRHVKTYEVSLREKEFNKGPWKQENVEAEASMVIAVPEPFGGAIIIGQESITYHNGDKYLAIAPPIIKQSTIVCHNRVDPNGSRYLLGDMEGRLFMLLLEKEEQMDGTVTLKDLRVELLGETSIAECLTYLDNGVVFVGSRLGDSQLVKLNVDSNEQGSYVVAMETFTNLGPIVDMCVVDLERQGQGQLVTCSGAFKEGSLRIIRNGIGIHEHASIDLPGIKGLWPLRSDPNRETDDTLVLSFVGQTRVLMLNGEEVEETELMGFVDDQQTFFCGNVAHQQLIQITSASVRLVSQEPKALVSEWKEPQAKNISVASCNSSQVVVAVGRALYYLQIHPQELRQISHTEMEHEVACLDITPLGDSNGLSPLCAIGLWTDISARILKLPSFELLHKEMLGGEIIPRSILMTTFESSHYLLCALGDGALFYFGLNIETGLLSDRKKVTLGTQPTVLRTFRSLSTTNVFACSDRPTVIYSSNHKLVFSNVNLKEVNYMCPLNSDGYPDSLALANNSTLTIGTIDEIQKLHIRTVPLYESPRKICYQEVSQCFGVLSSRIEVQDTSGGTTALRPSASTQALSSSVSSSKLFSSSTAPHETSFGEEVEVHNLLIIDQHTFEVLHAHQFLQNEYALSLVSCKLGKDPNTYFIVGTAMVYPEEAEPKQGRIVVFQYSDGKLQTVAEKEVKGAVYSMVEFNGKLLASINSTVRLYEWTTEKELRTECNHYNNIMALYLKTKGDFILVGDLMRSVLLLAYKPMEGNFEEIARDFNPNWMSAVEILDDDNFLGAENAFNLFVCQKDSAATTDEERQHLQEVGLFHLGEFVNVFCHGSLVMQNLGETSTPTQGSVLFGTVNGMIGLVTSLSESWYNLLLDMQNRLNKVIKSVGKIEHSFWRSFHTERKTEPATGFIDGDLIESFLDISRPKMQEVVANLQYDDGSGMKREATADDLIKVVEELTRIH

Structure (SMILES) | DC50 | Y
O=C1CCC(N2Cc3cc(C(=O)N[C@H](c4ccccc4F)C(F)(F)F)ccc3C2=O)C(=O)N1 (stereo partly drawn) [Example 49, 2-(2,6-dioxopiperidin-3-yl)-1-oxo-N-((R)-2,2,2-trifluoro-1-(2-fluorophenyl)ethyl)isoindoline-5-carboxamide] | < 100 nM | * (a Y value (shown as *) of 0<Y≤20%)
O=C1CCC(N2Cc3cc(C(=O)N[C@H](c4ccccc4Cl)C(F)(F)F)ccc3C2=O)C(=O)N1 (stereo partly drawn) [Example 50, N-((R)-1-(2-chlorophenyl)-2,2,2-trifluoroethyl)-2-(2,6-dioxopiperidin-3-yl)-1-oxoisoindoline-5-carboxamide] | < 100 nM | * (a Y value (shown as *) of 0<Y≤20%)
C[C@H](NC(=O)c1ccc2c(c1)CN(C1CCC(=O)NC1=O)C2=O)c1ccc(F)cc1F (stereo partly drawn) [Example 51, N-((S)-1-(2,4-difluorophenyl)ethyl)-2-(2,6-dioxopiperidin-3-yl)-1-oxoisoindoline-5-carboxamide] | < 100 nM | * (a Y value (shown as *) of 0<Y≤20%)
O=C1CCC(N2Cc3cc(C(=O)N[C@H](c4cccc(C(F)(F)F)c4)C(F)(F)F)ccc3C2=O)C(=O)N1 (stereo partly drawn) [Example 52, 2-(2,6-dioxopiperidin-3-yl)-1-oxo-N-((R)-2,2,2-trifluoro-1-(3-(trifluoromethyl)phenyl)ethyl)isoindoline-5-carboxamide] | < 100 nM | * (a Y value (shown as *) of 0<Y≤20%)
O=C1CCC(N2Cc3cc(C(=O)N[C@H](C4CCC5(CCC5)CC4)C(F)(F)F)ccc3C2=O)C(=O)N1 (stereo partly drawn) [Example 53, 2-(2,6-dioxopiperidin-3-yl)-1-oxo-N-((1R)-2,2,2-trifluoro-1-(spiro[3.5]nonan-7-yl)ethyl)isoindoline-5-carboxamide] | < 100 nM | * (a Y value (shown as *) of 0<Y≤20%)
O=C1CCC(N2Cc3cc(C(=O)N[C@H](c4cccnc4)C(F)(F)F)ccc3C2=O)C(=O)N1 (stereo partly drawn) [Example 54, 2-(2,6-dioxopiperidin-3-yl)-1-oxo-N-((R)-2,2,2-trifluoro-1-(pyridin-3-yl)ethyl)isoindoline-5-carboxamide] | 100 to 500 nM | ** (a Y value (shown as**) of 20%<Y≤35%)
C[C@H](NC(=O)c1ccc2c(c1)CN(C1CCC(=O)NC1=O)C2=O)c1ccc(Cl)cc1F (stereo partly drawn) [Example 55, N-((S)-1-(4-chloro-2-fluorophenyl)ethyl)-2-(2,6-dioxopiperidin-3-yl)-1-oxoisoindoline-5-carboxamide] | < 100 nM | * (a Y value (shown as *) of 0<Y≤20%)
O=C1CCC(N2Cc3cc(C(=O)N[C@H]([C@H]4CC[C@H](O)CC4)C(F)(F)F)ccc3C2=O)C(=O)N1 (stereo partly drawn) [Example 56, 2-(2,6-dioxopiperidin-3-yl)-1-oxo-N-((R)-2,2,2-trifluoro-1-((1r,4R)-4-hydroxycyclohexyl)ethyl)isoindoline-5-carboxamide] | 100 to 500 nM | * (a Y value (shown as *) of 0<Y≤20%)
O=C1CCC(N2Cc3cc(C(=O)N[C@@H](C(F)(F)F)C45CC(C4)C5)ccc3C2=O)C(=O)N1 (stereo partly drawn) [Example 57, N-((R)-1-(bicyclo[1.1.1]pentan-1-yl)-2,2,2-trifluoroethyl)-2-(2,6-dioxopiperidin-3-yl)-1-oxoisoindoline-5-carboxamide] | < 100 nM | * (a Y value (shown as *) of 0<Y≤20%)
O=C1CCC(N2Cc3cc(C(=O)N[C@H](c4cccc(OC(F)(F)F)c4)C(F)(F)F)ccc3C2=O)C(=O)N1 (stereo partly drawn) [Example 58, 2-(2,6-dioxopiperidin-3-yl)-1-oxo-N-((R)-2,2,2-trifluoro-1-(3-(trifluoromethoxy)phenyl)ethyl)isoindoline-5-carboxamide] | < 100 nM | * (a Y value (shown as *) of 0<Y≤20%)
C[C@H](NC(=O)c1ccc2c(c1)CN(C1CCC(=O)NC1=O)C2=O)c1ccc(F)cc1Cl (stereo partly drawn) [Example 59, N-((S)-1-(2-chloro-4-fluorophenyl)ethyl)-2-(2,6-dioxopiperidin-3-yl)-1-oxoisoindoline-5-carboxamide] | < 100 nM | * (a Y value (shown as *) of 0<Y≤20%)
O=C1CC[C@@H](N2Cc3cc(C(=O)N[C@H](c4ccccc4)C(F)(F)F)ccc3C2=O)C(=O)N1 [Example 60, 2-((R)-2,6-dioxopiperidin-3-yl)-1-oxo-N-((R)-2,2,2-trifluoro-1-phenylethyl)isoindoline-5-carboxamide] | < 100 nM | * (a Y value (shown as *) of 0<Y≤20%)
O=C1CC[C@H](N2Cc3cc(C(=O)N[C@H](c4ccccc4)C(F)(F)F)ccc3C2=O)C(=O)N1 [Example 61, 2-((S)-2,6-dioxopiperidin-3-yl)-1-oxo-N-((R)-2,2,2-trifluoro-1-phenylethyl)isoindoline-5-carboxamide] | < 100 nM | * (a Y value (shown as *) of 0<Y≤20%)
O=C1CCC(N2Cc3cc(C(=O)N[C@H]([C@H]4CC[C@@H](O)CC4)C(F)(F)F)ccc3C2=O)C(=O)N1 (stereo partly drawn) [Example 62, 2-(2,6-dioxopiperidin-3-yl)-1-oxo-N-((R)-2,2,2-trifluoro-1-((1s,4S)-4-hydroxycyclohexyl)ethyl)isoindoline-5-carboxamide] | 100 to 500 nM | * (a Y value (shown as *) of 0<Y≤20%)
N#Cc1ccc([C@@H](NC(=O)c2ccc3c(c2)CN(C2CCC(=O)NC2=O)C3=O)C(F)(F)F)cc1 (stereo partly drawn) [Example 63, N-((R)-1-(4-cyanophenyl)-2,2,2-trifluoroethyl)-2-(2,6-dioxopiperidin-3-yl)-1-oxoisoindoline-5-carboxamide] | < 100 nM | * (a Y value (shown as *) of 0<Y≤20%)
N#Cc1cccc([C@@H](NC(=O)c2ccc3c(c2)CN(C2CCC(=O)NC2=O)C3=O)C(F)(F)F)c1 (stereo partly drawn) [Example 64, N-((R)-1-(3-cyanophenyl)-2,2,2-trifluoroethyl)-2-(2,6-dioxopiperidin-3-yl)-1-oxoisoindoline-5-carboxamide] | < 100 nM | * (a Y value (shown as *) of 0<Y≤20%)
Cn1ccc([C@@H](NC(=O)c2ccc3c(c2)CN(C2CCC(=O)NC2=O)C3=O)C(F)(F)F)n1 (stereo partly drawn) [Example 65, 2-(2,6-dioxopiperidin-3-yl)-1-oxo-N-((R)-2,2,2-trifluoro-1-(1-methyl-1H-pyrazol-3-yl)ethyl)isoindoline-5-carboxamide] | 500 to 1000 nM | ** (a Y value (shown as**) of 20%<Y≤35%)
O=C1CCC(N2Cc3cc(C(=O)N[C@H](c4cncnc4)C(F)(F)F)ccc3C2=O)C(=O)N1 (stereo partly drawn) [Example 66, 2-(2,6-dioxopiperidin-3-yl)-1-oxo-N-((R)-2,2,2-trifluoro-1-(pyrimidin-5-yl)ethyl)isoindoline-5-carboxamide] | 500 to 1000 nM | ** (a Y value (shown as**) of 20%<Y≤35%)
COc1cc(F)ccc1[C@@H](NC(=O)c1ccc2c(c1)CN(C1CCC(=O)NC1=O)C2=O)C(F)(F)F (stereo partly drawn) [Example 67, 2-(2,6-dioxopiperidin-3-yl)-1-oxo-N-((R)-2,2,2-trifluoro-1-(4-fluoro-2-methoxyphenyl)ethyl)isoindoline-5-carboxamide] | < 100 nM | * (a Y value (shown as *) of 0<Y≤20%)
CC(C)([C@@H](NC(=O)c1ccc2c(c1)CN(C1CCC(=O)NC1=O)C2=O)C(F)(F)F)C(F)(F)F (stereo partly drawn) [Example 68, 2-(2,6-dioxopiperidin-3-yl)-N-((R)-1,1,1,4,4,4-hexafluoro-3,3-dimethylbutan-2-yl)-1-oxoisoindoline-5-carboxamide] | 100 to 500 nM | ** (a Y value (shown as**) of 20%<Y≤35%)
Cn1nccc1[C@@H](NC(=O)c1ccc2c(c1)CN(C1CCC(=O)NC1=O)C2=O)C(F)(F)F (stereo partly drawn) [Example 69, 2-(2,6-dioxopiperidin-3-yl)-1-oxo-N-((R)-2,2,2-trifluoro-1-(1-methyl-1H-pyrazol-5-yl)ethyl)isoindoline-5-carboxamide] | 500 to 1000 nM | ** (a Y value (shown as**) of 20%<Y≤35%)
Cn1cc([C@@H](NC(=O)c2ccc3c(c2)CN(C2CCC(=O)NC2=O)C3=O)C(F)(F)F)cn1 (stereo partly drawn) [Example 70, 2-(2,6-dioxopiperidin-3-yl)-1-oxo-N-((R)-2,2,2-trifluoro-1-(1-methyl-1H-pyrazol-4-yl)ethyl)isoindoline-5-carboxamide] | 100 to 500 nM | ** (a Y value (shown as**) of 20%<Y≤35%)
O=C1CCC(N2Cc3cc(C(=O)N[C@H](C4CCC(C(F)(F)F)CC4)C(F)(F)F)ccc3C2=O)C(=O)N1 (stereo partly drawn) [Example 71, 2-(2,6-dioxopiperidin-3-yl)-1-oxo-N-((1R)-2,2,2-trifluoro-1-(4-(trifluoromethyl)cyclohexyl)ethyl)isoindoline-5-carboxamide] | < 100 nM | * (a Y value (shown as *) of 0<Y≤20%)
O=C1CCC(N2Cc3cc(C(=O)N[C@H](c4ccc(F)cc4Cl)C(F)(F)F)ccc3C2=O)C(=O)N1 (stereo partly drawn) [Example 72, N-((R)-1-(2-chloro-4-fluorophenyl)-2,2,2-trifluoroethyl)-2-(2,6-dioxopiperidin-3-yl)-1-oxoisoindoline-5-carboxamide] | < 100 nM | * (a Y value (shown as *) of 0<Y≤20%)
O=C1CCC(N2Cc3cc(C(=O)N[C@H](c4ccc(F)c(F)c4)C(F)(F)F)ccc3C2=O)C(=O)N1 (stereo partly drawn) [Example 73, N-((R)-1-(3,4-difluorophenyl)-2,2,2-trifluoroethyl)-2-(2,6-dioxopiperidin-3-yl)-1-oxoisoindoline-5-carboxamide] | < 100 nM | * (a Y value (shown as *) of 0<Y≤20%)
